Bridge positions count the residues as written; N and C are the ends. Square brackets hold non-standard residues; d marks the D form. Peptide text beside a SMILES is read from it. d(aThr) = C[C@@H](O)[C@@H](N)C(=O)O; 12Ado = NCCCCCCCCCCCC(=O)O Where only a bound is given, the exact number is not on record here.

We go through five compounds from publication PMC3500847 (ChemMedChem, 2012).

The subject of data set [1] is human liver embryonic cell line WRL 68. The data set is classed as cell-based.
The test system of data set [2] is S. aureus ATCC 33591 (MRSA). The data set is classed as cell-based, Staphylococcus aureus.
Data set [3] relates to S. aureus ATCC 700699 (Mu50, VRSA). The format is cell-based, Staphylococcus aureus.
In another data set the test system is HepG2 cancer cell line. The data set is classed as cell-based, human.
Data set [4] deals with variety of fungi, including Candida albicans and Cryptococcus neoformans, and Gram-positive bacteria such as S. aureus. The following applies: range over fungi and Gram-positive bacteria; cited from earlier work.

For the compound `CC(=O)N[C@@H]1C(=O)N[C@H](C(C)C)C(=O)N[C@@H](C(C)C)C(=O)N[C@H]([C@H](C)O)C(=O)N[C@H](CC(N)=O)C(=O)N[C@H](C)C(=O)O[C@@H]1C` [compound 1] (Ac-T[dV]V[dT][dN][dA]; ester 1-C), the “cytotoxicity” value (in data set [1]; with HepG2 cancer cell line) was “did not show appreciable cytotoxicity” in each case. The minimal inhibitory concentration (MIC) in data set [2] and in data set [3] was more than 128 µg/mL throughout.
In the case of `CC(=O)N[C@@H]1C(=O)N[C@H](C(C)C)C(=O)N[C@@H](C(C)C)C(=O)N[C@H]([C@@H](C)O)C(=O)N[C@H](CC(N)=O)C(=O)N[C@H](C)C(=O)O[C@@H]1C` [compound 2] (Ac-T[dV]V[d(aThr)][dN][dA]; ester 1-C), the minimum inhibitory concentration (MIC) in data set [2] and in data set [3] was more than 128 µg/mL in each case.
As for `CC(C)[C@@H]1NC(=O)[C@@H](C(C)C)NC(=O)[C@@H](NC(=O)CCCCCCCCCCCN)[C@@H](C)OC(=O)[C@@H](C)NC(=O)[C@@H](CC(N)=O)NC(=O)[C@@H]([C@H](C)O)NC1=O` [compound 3] (H-[12Ado]T[dV]V[dT][dN][dA]; ester 2-C), the MIC in data set [2] and in data set [3] was more than 128 µg/mL in each case.
On to `CC(C)[C@@H]1NC(=O)[C@@H](C(C)C)NC(=O)[C@@H](NC(=O)CCCCCCCCCCCN)[C@@H](C)OC(=O)[C@@H](C)NC(=O)[C@@H](CC(N)=O)NC(=O)[C@@H]([C@@H](C)O)NC1=O` [compound 4] (H-[12Ado]T[dV]V[d(aThr)][dN][dA]; ester 2-C), for which the minimal inhibitory concentration (MIC) in data set [2] and in data set [3] was more than 128 µg/mL each time.
fusaricidin A: the MICs in data set [4] was 0.78 to 3.12 µg/mL.
